# Experiments:
# HEK293 = experiment: cells; type: functional; details: Homo sapiens, ATCC CRL1573, HEK293; ASSAY_TEST Inhibition of Cell Viability; detection method Resazurin; Fluorescence (ex560/em590); MEDIA DMEM with 10% FBS; plate type 384well; TC; CORNING #3712; time 18 hr
# Staphylococcus aureus = experiment: microbe, parasite or virus in culture; details: ATCC 43300, 18 h, ASSAY_TEST Inhibition of Bacterial Growth, detection method Absorption (OD600), MEDIA CAMHB, plate type 384well, NBS, CORNING #3640
# Escherichia coli = experiment: microbe, parasite or virus in culture; details: ATCC 25922, 18 h, ASSAY_TEST Inhibition of Bacterial Growth, detection method Absorption (OD600), MEDIA CAMHB, plate type 384well, NBS, CORNING #3640
# Klebsiella pneumoniae = experiment: microbe, parasite or virus in culture; details: ATCC 700603, 18 h, ASSAY_TEST Inhibition of Bacterial Growth, detection method Absorption (OD600), MEDIA CAMHB, plate type 384well, NBS, CORNING #3640
# Pseudomonas aeruginosa = experiment: microbe, parasite or virus in culture; details: ATCC 27853, 18 h, ASSAY_TEST Inhibition of Bacterial Growth, detection method Absorption (OD600), MEDIA CAMHB, plate type 384well, NBS, CORNING #3640
# Acinetobacter baumannii = experiment: microbe, parasite or virus in culture; details: ATCC 19606, 18 h, ASSAY_TEST Inhibition of Bacterial Growth, detection method Absorption (OD600), MEDIA CAMHB, plate type 384well, NBS, CORNING #3640
# Candida albicans = experiment: microbe, parasite or virus in culture; details: ATCC 90028, ASSAY_TEST Inhibition of Fungal Growth, detection method Absorption (OD530), plate type 384well, NBS, CORNING #3640
Compound,CC50 (HEK293) [µg/mL],MIC (Cryptococcus neoformans) [µg/mL],MIC (Staphylococcus aureus) [µg/mL],MIC (Escherichia coli) [µg/mL],MIC (Klebsiella pneumoniae) [µg/mL],MIC (Pseudomonas aeruginosa) [µg/mL],MIC (Acinetobacter baumannii) [µg/mL],MIC (Candida albicans) [µg/mL]
OCc1ccc(O)c2ncccc12,17.3,16,> 32,> 32,> 32,32,> 32,16
C=C=CCN(C)Cc1cc2cc(OCc3ccccc3)ccc2n1C.O=C(O)C(=O)O,1.61,> 32,> 32,> 32,> 32,> 32,> 32,> 32
C#CCN(C)Cc1cc2cc(OCc3ccccc3)ccc2[nH]1.O=C(O)C(=O)O,> 32,> 32,> 32,> 32,> 32,> 32,> 32,32
N#CC1=C(N)Oc2ccc3ccccc3c2C1c1ccc([N+](=O)[O-])cc1 (centres undefined),1.88,> 32,> 32,> 32,> 32,> 32,> 32,> 32
Brc1nc(Br)c(Br)[nH]1,> 32,> 32,> 32,> 32,> 32,> 32,> 32,> 32
CCOC(=O)C1=C(C)Nc2nc3c(c(N)c2C1c1ccccc1OC)CCCC3 (centres undefined),–,> 32,32,> 32,> 32,> 32,> 32,> 32
Cc1ccc2nc(Cl)c(/C=N/Cc3ccccc3)cc2c1,> 32,> 32,> 32,> 32,> 32,> 32,> 32,> 32
COc1ccc2[nH]c3nc4c(c(N)c3c2c1)CCCC4,15,32,> 32,> 32,> 32,32,> 32,> 32
C#CCN(C)Cc1cc2cc(OCCCCC3CCN(Cc4ccccc4)CC3)ccc2n1C.Cl,> 32,> 32,> 32,> 32,> 32,> 32,> 32,> 32
Cl.Nc1c2c(nc3[nH]c4ccccc4c13)CCCC2,4.74,> 32,> 32,> 32,> 32,16,> 32,> 32
COc1nc(Cl)c(C#N)cc1C#N,0.56,> 32,> 32,> 32,> 32,> 32,> 32,16
Nc1c2c(nc3c1CC(c1ccccc1)C(=O)N3)CCCC2 (centres undefined),11.3,> 32,> 32,> 32,> 32,> 32,> 32,> 32
O=C(CI)NCc1ccccc1,8.25,16,> 32,> 32,> 32,> 32,> 32,> 32
CCOC(=O)C1=C(C)Nc2nc3c(c(N)c2C1c1ccccc1OC)CCCC3.Cl (centres undefined),–,–,32,> 32,> 32,> 32,> 32,> 32
C#CCN(C)c1nc(NCCCCC2CCN(Cc3ccccc3)CC2)c(C#N)c(-c2ccccc2)c1C#N,3.73,8,> 32,> 32,> 32,> 32,> 32,32
CC1CC(=O)Nc2c1c(Br)nc1nc3c(c(N)c21)CCCC3 (centres undefined),4.01,> 32,> 32,> 32,> 32,> 32,> 32,> 32
C#CCNc1nc(NCCCC2CCN(Cc3ccccc3)CC2)c(C#N)c(-c2ccccc2)c1C#N,16,32,> 32,> 32,> 32,> 32,> 32,> 32

Compound,CC50 (HEK293) [µg/mL],MIC (Cryptococcus neoformans) [µg/mL],MIC (Staphylococcus aureus) [µg/mL],MIC (Escherichia coli) [µg/mL],MIC (Klebsiella pneumoniae) [µg/mL],MIC (Pseudomonas aeruginosa) [µg/mL],MIC (Acinetobacter baumannii) [µg/mL],MIC (Candida albicans) [µg/mL]
C#CCN(C)Cc1cc2cc(OCCCC3CCN(Cc4ccccc4)CC3)ccc2[nH]1.O=C(O)C(=O)O,13.4,> 32,> 32,> 32,> 32,> 32,> 32,> 32
C#CCNc1nc(NCCC2CCN(Cc3ccccc3)CC2)c(C#N)c(-c2ccccc2)c1C#N,11.3,> 32,> 32,> 32,> 32,> 32,> 32,> 32
N#C/C(=C\c1ccc([N+](=O)[O-])cc1)C(=O)c1ccccc1,> 32,32,> 32,> 32,> 32,> 32,> 32,> 32
Cc1ccc2nc(Cl)c(/C=N/O)cc2c1,> 32,> 32,> 32,> 32,> 32,> 32,> 32,> 32
C#CCN(C)c1nc(N)c(C#N)c(-c2ccccc2)c1C#N,> 32,> 32,> 32,> 32,> 32,> 32,> 32,> 32
Nc1n[nH]c2nc3[nH]nc(N)c3c(-c3ccccc3)c12,8.23,> 32,> 32,> 32,> 32,> 32,> 32,> 32
N#CC1=C(N)Oc2c(ccc3ccccc23)C1c1ccccc1[N+](=O)[O-] (centres undefined),> 32,> 32,> 32,> 32,> 32,> 32,> 32,> 32
C#CCN(C)c1nc(NCCCCC2CCN(Cc3ccccc3)CC2)c(C#N)c(-c2ccccc2)c1C#N.Cl,4.12,16,> 32,> 32,> 32,> 32,> 32,> 32
CC(C)(C)OC(=O)n1c(COC(=O)NC2CCN(Cc3ccccc3)CC2)cc2cc(OCc3ccccc3)ccc21.O=C(O)C(=O)O,9.19,16,> 32,> 32,> 32,> 32,> 32,32
CN(Cc1cn(-c2ccccc2)nn1)Cc1cc2cc(OCCCC3CCN(Cc4ccccc4)CC3)ccc2n1C.Cl,3.55,> 32,> 32,> 32,> 32,> 32,> 32,> 32
C#CCNc1nc(Cl)c(C#N)cc1C#N,22.4,> 32,> 32,> 32,> 32,> 32,> 32,32
C#CCNc1ccc(Cl)cn1,> 32,> 32,> 32,> 32,> 32,> 32,> 32,> 32
C#CCNc1nc(NCCCCC2CCN(Cc3ccccc3)CC2)c(C#N)c(-c2ccccc2)c1C#N,3.46,> 32,> 32,> 32,> 32,> 32,> 32,> 32
Cc1ccc2nc(Cl)c(C=O)cc2c1,24.1,32,> 32,> 32,> 32,> 32,> 32,> 32
C#CCN(C)Cc1cc2cc(OCCCC3CCNCC3)ccc2n1C.C#CCN(C)Cc1cc2cc(OCCCC3CCNCC3)ccc2n1C.Cl.Cl.Cl.Cl.O,17.2,> 32,> 32,> 32,> 32,> 32,> 32,> 32
N#CC1(Br)C(=N)Oc2ccc3ccccc3c2C1c1ccccc1[N+](=O)[O-] (centres undefined),5.83,> 32,> 32,> 32,> 32,> 32,> 32,> 32
Cl.ClCc1ccncc1,> 32,> 32,> 32,> 32,> 32,> 32,> 32,32
